The source of these data is patent publication US8431564B2 (Merck Sharp & Dohme B.V., priority 2009, dated 2013).

The target of the assay is T1, human FSH receptor (Homo sapiens, UniProt P23945).
T1 construct: expressed in transfected cells; host or cells: CHO (Chinese Hamster Ovary) cells, stably transfected, cotransfected with CRE-luciferase reporter
T1 sequence (P23945 18-695): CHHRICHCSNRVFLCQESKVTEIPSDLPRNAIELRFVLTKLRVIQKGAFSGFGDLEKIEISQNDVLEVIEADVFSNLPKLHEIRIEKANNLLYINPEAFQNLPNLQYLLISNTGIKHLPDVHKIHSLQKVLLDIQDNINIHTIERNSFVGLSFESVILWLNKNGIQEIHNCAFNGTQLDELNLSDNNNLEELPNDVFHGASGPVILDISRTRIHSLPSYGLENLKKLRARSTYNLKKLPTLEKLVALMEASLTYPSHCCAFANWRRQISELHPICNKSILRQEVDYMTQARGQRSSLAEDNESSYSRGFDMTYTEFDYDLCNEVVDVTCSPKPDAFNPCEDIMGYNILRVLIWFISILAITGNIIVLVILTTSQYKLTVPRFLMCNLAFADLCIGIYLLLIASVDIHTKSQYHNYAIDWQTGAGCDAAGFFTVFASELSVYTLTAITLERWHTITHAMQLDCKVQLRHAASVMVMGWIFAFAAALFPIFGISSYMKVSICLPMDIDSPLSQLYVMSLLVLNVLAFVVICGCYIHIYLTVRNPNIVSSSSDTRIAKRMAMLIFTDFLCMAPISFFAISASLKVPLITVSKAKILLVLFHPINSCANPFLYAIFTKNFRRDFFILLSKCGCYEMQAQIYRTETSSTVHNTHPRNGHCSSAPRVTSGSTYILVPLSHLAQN
Put plainly: Agonistic activity at the human FSH receptor expressed in CHO cells (CRE-luciferase reporter). In kind it is cell-based. Conditions: CHO cells stably transfected with human FSH receptor and CRE/luciferase reporter; 4 hours incubation; pEC50 is -log EC50; read-out: hFSHRago (CHO luc) pEC50 (converted). The text has this:
The term EC50 means the concentration of the test compound that elicits half-maximal (50%) stimulation compared to the compound's maximally attainable effect. pEC50 is the negative log of EC50. The values can be determined e.g. in a cell line transfected with a FSH receptor gene and cotransfected with a cAMP responsive element/promoter directing the expression of a reporter gene. For the determination a software program such as MathIQ (version 2.0, ID Business Solutions Limited) can be used.
Agonistic activity of the compounds at the human FSH receptor was determined in Chinese Hamster Ovary (CHO) cells stably transfected with the human FSH receptor and cotransfected with a cAMP responsive element (CRE)/promotor directing the expression of a firefly luciferase reporter gene. Binding of the compounds to the Gs protein-coupled FSH receptor will result in an increase of cAMP, which in turn will induce an increased transactivation of the luciferase reporter. Cells (7,500 cells/well of a 384 well plate) were incubated in Dulbecco' minimal essential F12 modified medium (Invitrogen), supplemented with 1 μg/ml bovine insulin, 5 μg/ml human apo-transferrin, 80 U/ml penicillin G and 80 μg/ml streptomycin with the test compounds (concentration between 0.0316 nM and 10.0 μM) in duplicate in a humidified atmosphere (95%) at 5-7% CO2 and 37° C. The final concentration of DMSO was 1%. After 4 hours of incubation, plates were allowed to adjust to room temperature for 1 hour. Then, Luclite (PerkinElmer) solution was added to the wells and cells were allowed to lyse for at least 1 hour at room temperature. Subsequently, luciferase activity was measured in a luminescence counter. The signal is expressed as counts per second (cps). The EC50 (concentration of the test compound that elicits half-maximal (50%) luciferase stimulation compared to the compound's maximally attainable effect) and efficacy values (maximal effect of the test compound as percentage of the maximal effect of recombinant human FSH) of the compounds were determined using the software program MathIQ (version 2.0, ID Business Solutions Limited). pEC50 data (pEC50 is −log EC50) are indicated at the synthesis examples.
A general note: In a reporter assay the amount or activity of a reporter protein is the signal.
Turning to `COc1cc2c(cc1-c1cccc(F)n1)-c1c(-c3cncs3)c3c(n1CC2)C(=O)N(C(C)(C)C)CCOC3` [Compound 11k, 9-tert-butyl-2-(6-fluoropyridin-2-yl)-3-methoxy-14-(1,3-thiazol-5-yl)-5,6,10,11-tetrahydro-9H-[1,4]oxazocino[7′,6′:4,5]pyrrolo[2,1-a]isoquinolin-8(13H)-one], the EC50 is 13.8 nM.
In the case of `COc1cc2c(cc1-c1cncs1)-c1c(-c3cncs3)c3c(n1CC2)C(=O)N(C(C)(C)C)CCOC3` [Compound 11l, 9-tert-butyl-3-methoxy-2,14-di-1,3-thiazol-5-yl-5,6,10,11-tetrahydro-9H-[1,4]oxazocino[7′,6′:4,5]pyrrolo[2,1-a]isoquinolin-8(13H)-one], the EC50 is 12.6 nM.
In the case of `COc1cc2c(cc1-c1cccnc1)-c1c(-c3cccs3)c3c(n1CC2)C(=O)N(C)C(C)(C)CC3` [Compound 12l, 9-methyl-2-pyidin3-yl-3-methoxy-10,10-dimethyl-13-(2-thienyl)-5,6,9,10,11,12-hexahydro-8H-azepino[4′,3′:4,5]pyrrolo[2,1-a]isoquinolin-8-one], the EC50 was 12 nM.
Consider `COc1cc2c(cc1-c1cccnc1)-c1c(Br)c3c(n1CC2)C(=O)N(C(C)(C)C)CCC3` [Compound 13d, 9-tert-butyl-2-pyridin-3-yl-13-bromo-3-methoxy-5,6,9,10,11,12-hexahydro-8H-azepino[4′,3′:4,5]pyrrolo[2,1-a]isoquinolin-8-one], for which the EC50 is 380 nM.
With `COc1cc2c(cc1-c1cccnc1)-c1c(-c3cccnc3)c3c(n1CC2)C(=O)N(C(C)(C)C)CCC3` [Compound 13e, 9-tert-butyl-2,13-di-(pyridin3-yl)-3-methoxy-5,6,9,10,11,12-hexahydro-8H-azepino[4′,3′:4,5]pyrrolo[2,1-a]isoquinolin-8-one], the EC50 is 42.7 nM.
As for `COc1cc2c(cc1-c1cccnc1)-c1c(-c3ncco3)c3c(n1CC2)C(=O)N(C(C)(C)C)CCC3` [Compound 13f], the EC50 is 15.8 nM.
For the compound `COc1cc2c(cc1OC(C)C)-c1c(-c3cccs3)c3c(n1CC2)C(=O)N(C(C)C)CCNC3` [Compound 14e, 9-isopropyl-3-methoxy-2-isopropoxy-14-(2-thienyl)-5,6,10,11,12,13-hexahydro[1,4]diazocino[6′,7′:4,5]pyrrolo[2,1-a]isoquinolin-8(9H)-one], the EC50 is 93.3 nM.
On to `COc1cc2c(cc1OC(C)C)-c1c(-c3cccs3)c3c(n1CC2)C(=O)N(C(C)C)CCN(C(C)=O)C3` [Compound 14f, 12-acetyl-9-isopropyl-3-methoxy-2-isopropoxy-14-(2-thienyl)-5,6,10,11,12,13-hexahydro[1,4]diazocino[6′,7′:4,5]pyrrolo[2,1-a]isoquinolin-8(9H)-one], for which the EC50 is 35.5 nM.
Under `CCC(=O)N1CCN(C(C)C)C(=O)c2c(c(-c3cccs3)c3n2CCc2cc(OC)c(OC(C)C)cc2-3)C1` [Compound 14g, 12-propanoyl-9-isopropyl-3-methoxy-2-isopropoxy-14-(2-thienyl)-5,6,10,11,12,13-hexahydro[1,4]diazocino[6′,7′:4,5]pyrrolo[2,1-a]isoquinolin-8(9H)-one] stands 219 nM; under `COc1cc2c(cc1OC(C)C)-c1c(-c3cccs3)c3c(n1CC2)C(=O)N(C(C)(C)C)C3` [Compound 15f, 9-tert-butyl-2-isopropoxy-3-methoxy-11-(2-thienyl)-5,6,9,10-tetrahydro-8H-pyrrolo[3′,4′:4,5]pyrrolo[2,1-a]isoquinolin-8-one], 617 nM; under `COc1cc2c(cc1-c1cccnc1)-c1c(-c3cncs3)c3c(n1CC2)C(=O)N(C(C)(C)C)CCCCC3` [Compound 16n, 2-pyridin-3-yl-9-tert-butyl-3-methoxy-15-(1,3-thiazol-5-yl)-5,6,9,10,11,12,13,14-octahydro-8H-azonino[4′,3′:4,5]pyrrolo[2,1-a]isoquinolin-8-one], 16.2 nM.
Turning to `COc1cc2c(cc1-c1cccnc1)-c1c(-c3cscn3)c3c(n1CC2)C(=O)N(C(C)(C)C)CCCCC3` [Compound 16t, 2-pyridin-3-yl-9-tert-butyl-3-methoxy-15-(1,3-thiazol-4-yl)-5,6,9,10,11,12,13,14-octahydro-8H-azonino[4′,3′:4,5]pyrrolo[2,1-a]isoquinolin-8-one], the EC50 was 29.5 nM.
In the case of `COc1cc2c(cc1Br)-c1c(-c3cncs3)c3c(n1CC2)C(=O)N(C(C)(C)C)CCCC3` [Compound 17i, 9-tert-butyl-3-methoxy-2-bromo-14-(1,3-thiazol-5-yl)-5,6,10,11,12,13-hexahydroazocino[4′,3′:4,5]pyrrolo[2,1-a]isoquinolin-8(9H)-one], the EC50 was 4.68 nM.
The result for `COc1cc2c(cc1-c1ncco1)-c1c(-c3cncs3)c3c(n1CC2)C(=O)N(C(C)(C)C)CCCC3` [Compound 17j, 9-tert-butyl-3-methoxy-2-(1,3-oxazol-2-yl)-14-(1,3-thiazol-5-yl)-5,6,10,11,12,13-hexahydroazocino[4′,3′:4,5]pyrrolo[2,1-a]isoquinolin-8(9H)-one] reads 0.977 nM; that for `COc1cc2c(cc1-c1cccnc1)-c1c(-c3cncs3)c3c(n1CC2)C(=O)N(C(C)(C)C)CCCC3` [Compound 17k, 9-tert-butyl-3-methoxy-2-pyridin-3-yl-14-(1,3-thiazol-5-yl)-5,6,10,11,12,13-hexahydroazocino[4′,3′:4,5]pyrrolo[2,1-a]isoquinolin-8(9H)-one], 0.355 nM; that for `COc1cc2c(cc1OC(C)C)-c1c(Br)c3c(n1CC2)C(=O)N(C(C)(C)C)CCOC3` [Compound 18d, 9-tert-butyl-3-methoxy-2-isopropoxy-14-bromo-5,6,10,11-tetrahydro-9H-[1,4]oxazocino[7′,6′:4,5]pyrrolo[2,1-a]isoquinolin-8(13H)-one], 126 nM.
The result for `COc1cc2c(cc1OC(C)C)-c1c(-c3cccnc3)c3c(n1CC2)C(=O)N(C(C)(C)C)CCOC3` [Compound 18e, 9-tert-butyl-3-methoxy-2-isopropoxy-14-pyridin-3-yl-5,6,10,11-tetrahydro-9H-[1,4]oxazocino[7′,6′:4,5]pyrrolo[2,1-a]isoquinolin-8(13H)-one] reads 63.1 nM; that for `COc1cc2c(cc1OC(C)C)-c1c(-c3ccncc3)c3c(n1CC2)C(=O)N(C(C)(C)C)CCOC3` [Compound 18f, 9-tert-butyl-3-methoxy-2-isopropoxy-14-pyridin-4-yl-5,6,10,11-tetrahydro-9H-[1,4]oxazocino[7′,6′:4,5]pyrrolo[2,1-a]isoquinolin-8(13H)-one], 47.9 nM; that for `COc1cc2c(cc1OC(C)C)-c1c(-c3ccc(F)cc3)c3c(n1CC2)C(=O)N(C(C)(C)C)CCOC3` [Compound 18g], 20 nM.
Consider `COc1cc2c(cc1-c1cccnc1)-c1c(Cl)c3c(n1CC2)C(=O)N(C(C)(C)C)CCCC3` [Compound 19f, 9-tert-butyl-3-methoxy-2-pyridin-3-yl-14-chloro-5,6,10,11,12,13-hexahydroazocino[4′,3′:4,5]pyrrolo[2,1-a]isoquinolin-8(9H)-one], for which the EC50 is 12.3 nM.
The result for `COc1cc2c(cc1N)-c1c(-c3cccs3)c3c(n1CC2)C(=O)N(C(C)(C)C)CCCC3` [Compound 20b, 9-tert-butyl-14-(thien-2-yl)-2-amino-3-methoxy-5,6,10,11,12,13-hexahydroazocino[4′,3′:4,5]pyrrolo[2,1-a]isoquinolin-8(9H)-one] reads 39.8 nM.
The result for `COc1cc2c(cc1-n1cc(CCO)nn1)-c1c(-c3cccs3)c3c(n1CC2)C(=O)N(C(C)(C)C)CCCC3` [Compound 20d, 9-tert-butyl-14-(thien-2-yl)-2-(4-(2-hydroxyethyl)-1H-1,2,3-triazol-1-yl)-3-methoxy-5,6,10,11,12,13-hexahydroazocino[4′,3′:4,5]pyrrolo[2,1-a]isoquinolin-8(9H)-one] reads 0.589 nM.
